Assay results reported in patent US20230391768A2, “IMIDAZOPYRIDINE DERIVATIVES AND AZA-IMIDAZOPYRIDINE DERIVATIVES AS JANUS KINASE 2 INHIBITORS AND USES THEREOF” (Dana-Farber Cancer Institute, Inc., priority 2018, published 2023).

Experiments:
Experiment in all cases: KINOMEscan
Type in all cases: binding
Conditions in all cases: read-out: percent of control
AKT2 = AKT2 (Homo sapiens (Human), UniProt P31751)
Procedure: (§1) In vitro profiling of Compound I-2 (1 μM) was performed using the DiscoveRx KINOMEscan® platform.

PIK4CB = PIK4CB (Homo sapiens (Human), UniProt Q9UBF8)
Procedure: as §1

PRKCQ = PRKCQ (Homo sapiens (Human), UniProt Q04759)
Procedure: as §1

MYO3B = MYO3B (Homo sapiens (Human), UniProt Q8WXR4)
Procedure: as §1

MYLK = MYLK (Homo sapiens (Human), UniProt Q15746)
Procedure: as §1

WNK2 = WNK2 (Homo sapiens (Human), UniProt Q9Y3S1)
Procedure: as §1

PHKG1 = PHKG1 (Homo sapiens (Human), UniProt Q16816)
Procedure: as §1

ALK(C1156Y) = ALK(C1156Y) (Homo sapiens (Human), UniProt Q9UM73, C1156Y)
Procedure: as §1

KIT-autoinhibited = KIT-autoinhibited (Homo sapiens (Human), UniProt P10721)
Procedure: as §1

PIK3C2G = PIK3C2G (Homo sapiens (Human), UniProt O75747)
Procedure: as §1

EPHA7 = EPHA7 (Homo sapiens (Human), UniProt Q15375)
EPHA7, sequence (Q15375 28-998): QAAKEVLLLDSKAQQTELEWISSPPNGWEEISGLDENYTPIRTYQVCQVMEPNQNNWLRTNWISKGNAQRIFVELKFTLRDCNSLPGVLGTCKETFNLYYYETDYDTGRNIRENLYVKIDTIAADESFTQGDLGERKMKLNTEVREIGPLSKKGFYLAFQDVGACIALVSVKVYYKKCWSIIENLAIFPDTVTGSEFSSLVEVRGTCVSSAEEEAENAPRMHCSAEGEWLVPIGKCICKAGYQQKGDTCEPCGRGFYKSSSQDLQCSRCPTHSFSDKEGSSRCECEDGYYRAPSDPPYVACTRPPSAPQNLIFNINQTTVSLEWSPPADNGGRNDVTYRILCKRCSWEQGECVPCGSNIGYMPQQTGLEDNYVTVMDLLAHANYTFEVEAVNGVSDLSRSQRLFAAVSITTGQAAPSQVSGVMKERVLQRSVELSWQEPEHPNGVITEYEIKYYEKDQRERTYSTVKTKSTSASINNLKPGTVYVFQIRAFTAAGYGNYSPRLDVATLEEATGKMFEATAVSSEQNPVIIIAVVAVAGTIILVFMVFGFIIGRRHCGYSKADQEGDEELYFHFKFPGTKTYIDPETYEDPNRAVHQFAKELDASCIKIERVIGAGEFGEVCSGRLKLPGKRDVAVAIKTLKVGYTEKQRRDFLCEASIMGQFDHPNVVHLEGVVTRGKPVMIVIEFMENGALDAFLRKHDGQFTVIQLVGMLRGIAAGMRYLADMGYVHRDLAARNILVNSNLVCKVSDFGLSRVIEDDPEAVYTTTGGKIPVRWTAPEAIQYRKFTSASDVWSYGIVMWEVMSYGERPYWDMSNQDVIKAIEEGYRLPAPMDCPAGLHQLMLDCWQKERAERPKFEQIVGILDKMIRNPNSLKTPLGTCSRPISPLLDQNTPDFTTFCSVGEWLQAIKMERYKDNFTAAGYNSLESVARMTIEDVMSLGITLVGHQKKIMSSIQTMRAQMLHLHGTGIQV
Procedure: as §1

PFCDPK1(P.falciparum) = PFCDPK1(P.falciparum) (Plasmodium falciparum (isolate 3D7), UniProt P62344)
Procedure: as §1

PCTK2 = PCTK2 (Homo sapiens (Human), UniProt Q00537)
Procedure: as §1

CDK11 = CDK11 (Homo sapiens (Human), UniProt Q9BWU1)
CDK11, sequence (Q9BWU1 whole entry): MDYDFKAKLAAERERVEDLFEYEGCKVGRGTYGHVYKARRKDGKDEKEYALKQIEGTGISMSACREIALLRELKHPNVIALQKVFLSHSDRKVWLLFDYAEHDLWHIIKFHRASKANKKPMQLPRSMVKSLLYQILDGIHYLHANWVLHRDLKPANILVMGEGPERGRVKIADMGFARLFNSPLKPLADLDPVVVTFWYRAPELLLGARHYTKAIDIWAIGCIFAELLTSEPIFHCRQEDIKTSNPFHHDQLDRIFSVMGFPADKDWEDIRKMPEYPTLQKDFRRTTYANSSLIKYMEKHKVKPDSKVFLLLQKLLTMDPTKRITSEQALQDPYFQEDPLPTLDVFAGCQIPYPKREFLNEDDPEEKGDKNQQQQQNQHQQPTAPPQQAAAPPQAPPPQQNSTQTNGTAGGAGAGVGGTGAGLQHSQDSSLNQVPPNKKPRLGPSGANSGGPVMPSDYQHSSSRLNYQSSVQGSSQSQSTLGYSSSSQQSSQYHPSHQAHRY
Procedure: as §1

CSF1R = CSF1R (Homo sapiens (Human), UniProt P07333)
Procedure: as §1

[1] = target: RSK4 (Kin.Dom.2-C-terminal) (Homo sapiens (Human), UniProt Q9UK32)
RSK4 (Kin.Dom.2-C-terminal), sequence (Q9UK32 426-683): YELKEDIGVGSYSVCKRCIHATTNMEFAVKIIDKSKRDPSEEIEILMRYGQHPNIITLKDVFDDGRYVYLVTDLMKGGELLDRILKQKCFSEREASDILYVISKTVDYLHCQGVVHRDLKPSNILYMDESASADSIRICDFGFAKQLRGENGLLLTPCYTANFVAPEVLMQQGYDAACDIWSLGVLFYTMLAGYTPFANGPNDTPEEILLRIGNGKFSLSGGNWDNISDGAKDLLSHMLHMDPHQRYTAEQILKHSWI
Procedure: as §1

NDR2 = NDR2 (Homo sapiens (Human), UniProt Q9Y2H1)
Procedure: as §1

YANK3 = YANK3 (Homo sapiens (Human), UniProt Q86UX6)
Procedure: as §1

MAP3K1 = MAP3K1 (Homo sapiens (Human), UniProt Q13233)
Procedure: as §1

TGFBR1 = TGFBR1 (Homo sapiens (Human), UniProt P36897)
Procedure: as §1

MET(Y1235D) = MET(Y1235D) (Homo sapiens (Human), UniProt P08581, Y1235D)
Procedure: as §1

TESK1 = TESK1 (Homo sapiens (Human), UniProt Q15569)
Procedure: as §1

MEK5 = MEK5 (Homo sapiens (Human), UniProt Q13163)
Procedure: as §1

DAPK3 = DAPK3 (Homo sapiens (Human), UniProt O43293)
Procedure: as §1

FLT3 (D835V) = FLT3 (D835V) (Homo sapiens (Human), UniProt P36888, D835V)
Procedure: as §1

MAP3K15 = MAP3K15 (Homo sapiens (Human), UniProt Q6ZN16)
MAP3K15, sequence (Q6ZN16 whole entry): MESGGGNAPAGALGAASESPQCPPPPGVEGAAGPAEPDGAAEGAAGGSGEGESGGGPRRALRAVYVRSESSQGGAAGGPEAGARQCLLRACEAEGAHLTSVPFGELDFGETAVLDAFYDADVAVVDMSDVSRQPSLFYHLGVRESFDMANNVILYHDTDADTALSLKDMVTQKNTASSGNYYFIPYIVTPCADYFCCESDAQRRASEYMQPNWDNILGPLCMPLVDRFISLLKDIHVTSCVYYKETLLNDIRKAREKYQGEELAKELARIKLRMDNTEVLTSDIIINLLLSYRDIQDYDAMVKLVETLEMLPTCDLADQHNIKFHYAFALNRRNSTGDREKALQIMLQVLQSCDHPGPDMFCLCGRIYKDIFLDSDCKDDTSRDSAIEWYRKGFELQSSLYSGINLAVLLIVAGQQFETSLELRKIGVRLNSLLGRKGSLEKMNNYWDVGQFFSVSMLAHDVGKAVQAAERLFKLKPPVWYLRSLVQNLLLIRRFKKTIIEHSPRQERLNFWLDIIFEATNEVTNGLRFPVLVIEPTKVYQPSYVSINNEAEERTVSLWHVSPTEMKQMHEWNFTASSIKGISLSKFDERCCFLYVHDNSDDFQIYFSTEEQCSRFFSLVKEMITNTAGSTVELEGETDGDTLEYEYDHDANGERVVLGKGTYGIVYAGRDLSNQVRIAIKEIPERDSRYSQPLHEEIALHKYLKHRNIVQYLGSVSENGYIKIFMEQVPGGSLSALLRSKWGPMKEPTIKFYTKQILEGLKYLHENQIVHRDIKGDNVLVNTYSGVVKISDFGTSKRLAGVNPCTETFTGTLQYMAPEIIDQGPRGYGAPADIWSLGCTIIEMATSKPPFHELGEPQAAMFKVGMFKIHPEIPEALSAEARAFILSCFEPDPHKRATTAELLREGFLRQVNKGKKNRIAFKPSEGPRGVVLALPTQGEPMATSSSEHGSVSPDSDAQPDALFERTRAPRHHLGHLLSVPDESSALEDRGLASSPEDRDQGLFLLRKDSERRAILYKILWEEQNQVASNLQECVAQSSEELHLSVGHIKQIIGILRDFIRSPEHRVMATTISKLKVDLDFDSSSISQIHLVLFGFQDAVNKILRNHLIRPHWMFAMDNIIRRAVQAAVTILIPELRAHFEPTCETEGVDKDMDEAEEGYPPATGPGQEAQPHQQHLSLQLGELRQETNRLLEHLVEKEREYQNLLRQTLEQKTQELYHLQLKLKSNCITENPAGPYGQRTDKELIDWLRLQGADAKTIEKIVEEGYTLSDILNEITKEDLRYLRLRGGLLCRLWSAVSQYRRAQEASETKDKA
Procedure: as §1

FRK = FRK (Homo sapiens (Human), UniProt P42685)
FRK, sequence (P42685 whole entry): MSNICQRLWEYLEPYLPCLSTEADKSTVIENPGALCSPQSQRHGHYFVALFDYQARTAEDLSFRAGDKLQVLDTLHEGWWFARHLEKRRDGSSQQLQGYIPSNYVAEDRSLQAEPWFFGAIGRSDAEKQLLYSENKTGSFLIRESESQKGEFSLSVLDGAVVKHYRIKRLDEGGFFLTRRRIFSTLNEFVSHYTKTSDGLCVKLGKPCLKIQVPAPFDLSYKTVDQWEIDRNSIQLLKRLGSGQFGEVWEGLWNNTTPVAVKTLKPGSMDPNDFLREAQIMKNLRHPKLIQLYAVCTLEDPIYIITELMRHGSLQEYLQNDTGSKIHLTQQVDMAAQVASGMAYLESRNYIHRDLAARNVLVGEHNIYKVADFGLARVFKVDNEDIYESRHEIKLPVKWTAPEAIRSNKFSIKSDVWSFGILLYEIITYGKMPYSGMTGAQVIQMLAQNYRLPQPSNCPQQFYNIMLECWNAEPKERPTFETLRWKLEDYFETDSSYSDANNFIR
Procedure: as §1

CDK9 = CDK9 (Homo sapiens (Human), UniProt P50750)
CDK9, sequence (P50750 whole entry): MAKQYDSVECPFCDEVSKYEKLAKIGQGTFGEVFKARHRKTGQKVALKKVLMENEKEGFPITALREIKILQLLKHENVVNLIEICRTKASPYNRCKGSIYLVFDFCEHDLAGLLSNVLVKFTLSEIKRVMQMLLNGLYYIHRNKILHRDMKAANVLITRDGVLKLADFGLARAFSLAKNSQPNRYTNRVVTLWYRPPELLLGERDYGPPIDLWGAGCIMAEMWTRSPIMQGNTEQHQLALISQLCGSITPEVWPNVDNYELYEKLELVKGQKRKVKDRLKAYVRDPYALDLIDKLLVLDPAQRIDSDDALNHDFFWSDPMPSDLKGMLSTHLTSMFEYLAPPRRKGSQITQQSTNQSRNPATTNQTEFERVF
Procedure: as §1

PDGFRA = PDGFRA (Homo sapiens (Human), UniProt P16234)
Procedure: as §1

PCTK3 = PCTK3 (Homo sapiens (Human), UniProt Q07002)
Procedure: as §1

CDC2L1 = CDC2L1 (Homo sapiens (Human), UniProt P21127)
Procedure: as §1

TAOK3 = TAOK3 (Homo sapiens (Human), UniProt Q9H2K8)
Procedure: as §1

PIM3 = PIM3 (Homo sapiens (Human), UniProt Q86V86)
Procedure: as §1

KIT(A829P) = KIT(A829P) (Homo sapiens (Human), UniProt P10721, A829P)
Procedure: as §1

MET = MET (Homo sapiens (Human), UniProt P08581)
Procedure: as §1

[2] = target: ABL1(T315I)-phosphorylated (Homo sapiens (Human), UniProt P00519, T315I)
Procedure: as §1

FGFR2 = FGFR2 (Homo sapiens (Human), UniProt P21802)
FGFR2, sequence (P21802 22-821): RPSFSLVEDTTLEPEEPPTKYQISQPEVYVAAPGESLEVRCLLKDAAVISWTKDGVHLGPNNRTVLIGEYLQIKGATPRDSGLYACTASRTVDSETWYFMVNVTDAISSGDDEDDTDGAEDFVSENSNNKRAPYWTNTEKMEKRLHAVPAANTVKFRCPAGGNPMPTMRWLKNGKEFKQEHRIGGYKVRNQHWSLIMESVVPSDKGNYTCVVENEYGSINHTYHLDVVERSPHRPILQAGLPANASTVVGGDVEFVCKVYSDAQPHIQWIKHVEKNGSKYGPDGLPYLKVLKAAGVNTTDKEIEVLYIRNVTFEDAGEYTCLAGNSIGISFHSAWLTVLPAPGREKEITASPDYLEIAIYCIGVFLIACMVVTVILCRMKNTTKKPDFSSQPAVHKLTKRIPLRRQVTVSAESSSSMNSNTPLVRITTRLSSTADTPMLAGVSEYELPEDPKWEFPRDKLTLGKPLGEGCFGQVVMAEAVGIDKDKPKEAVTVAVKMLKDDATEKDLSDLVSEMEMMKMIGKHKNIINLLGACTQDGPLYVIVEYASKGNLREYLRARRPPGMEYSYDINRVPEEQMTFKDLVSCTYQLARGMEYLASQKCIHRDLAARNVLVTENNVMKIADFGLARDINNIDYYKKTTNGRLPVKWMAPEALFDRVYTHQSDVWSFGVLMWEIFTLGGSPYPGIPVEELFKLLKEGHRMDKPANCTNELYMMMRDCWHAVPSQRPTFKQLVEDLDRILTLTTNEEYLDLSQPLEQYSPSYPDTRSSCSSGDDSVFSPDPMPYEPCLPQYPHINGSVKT
Procedure: as §1

STK33 = STK33 (Homo sapiens (Human), UniProt Q9BYT3)
Procedure: as §1

Compound | remaining binding at 1 µM (AKT2) [%] | remaining binding at 1 µM (PIK4CB) [%] | remaining binding at 1 µM (PRKCQ) [%] | remaining binding at 1 µM (MYO3B) [%] | remaining binding at 1 µM (MYLK) [%] | remaining binding at 1 µM (WNK2) [%] | remaining binding at 1 µM (PHKG1) [%] | remaining binding at 1 µM (ALK(C1156Y)) [%] | remaining binding at 1 µM (KIT-autoinhibited) [%] | remaining binding at 1 µM (PIK3C2G) [%] | remaining binding at 1 µM (EPHA7) [%] | remaining binding at 1 µM (PFCDPK1(P.falciparum)) [%] | remaining binding at 1 µM (PCTK2) [%] | remaining binding at 1 µM (CDK11) [%] | remaining binding at 1 µM (CSF1R) [%] | remaining binding at 1 µM [1] [%] | remaining binding at 1 µM (NDR2) [%] | remaining binding at 1 µM (YANK3) [%] | remaining binding at 1 µM (MAP3K1) [%] | remaining binding at 1 µM (TGFBR1) [%] | other results
CCN1CCN(Cc2cc(NC(=O)c3ccc(C)c(-c4ccc5nc(NC(=O)C6CC6)cn5n4)c3)cc(C(F)(F)F)c2)CC1 [Compound I-2, 3-(2-(cyclopropanecarboxamido)imidazo[1,2-b]pyridazin-6-yl)-N-(3-((4-ethylpiperazin-1-yl)methyl)-5-(trifluoromethyl)phenyl)-4-methylbenzamide] | 100 | 97 | 27 | 80 | 65 | 72 | 99 | 30 | 79 | 92 | 3.3 | 84 | 1.8 | 0.6 | 0.05 | 94 | 98 | 91 | 97 | 94 | remaining binding at 1 µM (MET(Y1235D)): 8.7%; remaining binding at 1 µM (TESK1): 100%; remaining binding at 1 µM (MEK5): 21%; remaining binding at 1 µM (DAPK3): 93%; remaining binding at 1 µM (FLT3 (D835V)): 5.3%; remaining binding at 1 µM (MAP3K15): 55%; remaining binding at 1 µM (FRK): 3.9%; remaining binding at 1 µM (CDK9): 14%; remaining binding at 1 µM (PDGFRA): 1.1%; remaining binding at 1 µM (PCTK3): 4.8%; remaining binding at 1 µM (CDC2L1): 44%; remaining binding at 1 µM (TAOK3): 0.2%; remaining binding at 1 µM (PIM3): 90%; remaining binding at 1 µM (KIT(A829P)): 0%; remaining binding at 1 µM (MET): 9.7%; remaining binding at 1 µM [2]: 1.4%; remaining binding at 1 µM (FGFR2): 67%; remaining binding at 1 µM (STK33): 70%
CCN1CCN(Cc2cc(NC(=O)c3ccc(C)c(-c4ccc5nc(NC(=O)C6CC6)cn5c4)c3)cc(C(F)(F)F)c2)CC1 [Compound I-6, 3-(2-(cyclopropanecarboxamido)imidazo[1,2-a]pyridin-6-yl)-N-(3-((4-ethylpiperazin-1-yl)methyl)-5-(trifluoromethyl)phenyl)-4-methylbenzamide] | 98 | 96 | 74 | 49 | 79 | 57 | 93 | 29 | 85 | 95 | 2 | 88 | 1.3 | 2.7 | 0 | 77 | 59 | 100 | 94 | 100 | remaining binding at 1 µM (MET(Y1235D)): 8.9%; remaining binding at 1 µM (TESK1): 97%; remaining binding at 1 µM (MEK5): 17%; remaining binding at 1 µM (DAPK3): 100%; remaining binding at 1 µM (FLT3 (D835V)): 7.7%; remaining binding at 1 µM (MAP3K15): 95%; remaining binding at 1 µM (FRK): 3.2%; remaining binding at 1 µM (CDK9): 13%; remaining binding at 1 µM (PDGFRA): 1.2%; remaining binding at 1 µM (PCTK3): 27%; remaining binding at 1 µM (CDC2L1): 33%; remaining binding at 1 µM (TAOK3): 0.9%; remaining binding at 1 µM (PIM3): 89%; remaining binding at 1 µM (KIT(A829P)): 12%; remaining binding at 1 µM (MET): 14%; remaining binding at 1 µM [2]: 2.2%; remaining binding at 1 µM (FGFR2): 57%; remaining binding at 1 µM (STK33): 100%
